Holding throughout (assay type): biochemical
Test [1] addresses T1, ERK.
T1 construct: gene MAPK1; enzyme source and assay not described; ERK2 used only for docking
Put plainly: kinase activity profile; ERK assay not described. The text has this:
kinase activity profile; ERK assay not described on ERK

Test [2] deals with T2, PI3Kδ (Homo sapiens, UniProt O00329).
T2 construct: gene PIK3CD; with Phosphatidylinositol 3-kinase regulatory subunit alpha
Put plainly: PI3K-Glo ADP detection kinase assay. The text has this:
PI3K-Glo ADP detection kinase assay on PI3Kδ

For test [3], the target named is T3, PI3Kα (Homo sapiens, UniProt P42336).
T3 construct: gene PIK3CA; with Phosphatidylinositol 3-kinase regulatory subunit alpha
Put plainly: PI3K-Glo ADP detection kinase assay. The text has this: PI3K-Glo ADP detection kinase assay on PI3Kα

Test [4] concerns the target T4, PI3Kβ (Homo sapiens, UniProt P42338).
T4 construct: gene PIK3CB; with Phosphatidylinositol 3-kinase regulatory subunit alpha
Put plainly: PI3K-Glo ADP detection kinase assay. The text has this: PI3K-Glo ADP detection kinase assay on PI3Kβ

Test [5] deals with T5, PI3Kγ (Homo sapiens, UniProt P48736).
T5 construct: gene PIK3CG
Put plainly: PI3K-Glo ADP detection kinase assay. The text has this: PI3K-Glo ADP detection kinase assay on PI3Kγ

Experimental findings from PMC8355706, “CK-3, A Novel Methsulfonyl Pyridine Derivative, Suppresses Hepatocellular Carcinoma Proliferation and Invasion by Blocking the PI3K/AKT/mTOR and MAPK/ERK Pathways” (Frontiers in Oncology, 2021) are described below.

Usually IC50 stands for the concentration that gives 50% inhibition. A lower IC50 goes with inhibition by little substance.

T5 sequence (P48736 whole entry): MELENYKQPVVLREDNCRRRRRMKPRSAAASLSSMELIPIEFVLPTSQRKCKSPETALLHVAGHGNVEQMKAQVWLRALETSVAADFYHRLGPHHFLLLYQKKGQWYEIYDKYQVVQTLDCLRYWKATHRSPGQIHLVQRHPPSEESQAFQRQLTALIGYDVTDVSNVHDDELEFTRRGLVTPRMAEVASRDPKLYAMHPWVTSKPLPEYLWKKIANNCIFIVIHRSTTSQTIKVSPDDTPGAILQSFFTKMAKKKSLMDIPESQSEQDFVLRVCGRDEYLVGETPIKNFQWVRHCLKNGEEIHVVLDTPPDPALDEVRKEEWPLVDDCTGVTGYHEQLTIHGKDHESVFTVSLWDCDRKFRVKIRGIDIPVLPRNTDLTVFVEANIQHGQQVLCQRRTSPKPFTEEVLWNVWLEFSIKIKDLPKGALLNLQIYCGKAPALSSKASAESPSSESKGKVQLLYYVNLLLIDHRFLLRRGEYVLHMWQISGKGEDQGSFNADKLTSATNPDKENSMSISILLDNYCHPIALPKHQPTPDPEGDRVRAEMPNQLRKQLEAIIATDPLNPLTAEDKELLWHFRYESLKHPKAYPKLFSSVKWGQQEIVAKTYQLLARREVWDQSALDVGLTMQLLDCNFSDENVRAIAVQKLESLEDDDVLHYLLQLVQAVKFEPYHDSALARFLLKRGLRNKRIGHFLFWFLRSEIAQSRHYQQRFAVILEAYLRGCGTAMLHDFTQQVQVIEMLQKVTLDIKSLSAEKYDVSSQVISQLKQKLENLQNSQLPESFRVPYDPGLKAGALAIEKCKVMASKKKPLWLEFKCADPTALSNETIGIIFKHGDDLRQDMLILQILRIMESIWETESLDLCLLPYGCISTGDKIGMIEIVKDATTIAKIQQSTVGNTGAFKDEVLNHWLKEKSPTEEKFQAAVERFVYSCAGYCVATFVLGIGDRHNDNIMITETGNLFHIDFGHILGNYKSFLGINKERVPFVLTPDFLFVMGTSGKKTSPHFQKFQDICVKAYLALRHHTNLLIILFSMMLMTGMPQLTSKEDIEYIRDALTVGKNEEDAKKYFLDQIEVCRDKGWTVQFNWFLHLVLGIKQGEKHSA
T4 sequence (P42338 whole entry): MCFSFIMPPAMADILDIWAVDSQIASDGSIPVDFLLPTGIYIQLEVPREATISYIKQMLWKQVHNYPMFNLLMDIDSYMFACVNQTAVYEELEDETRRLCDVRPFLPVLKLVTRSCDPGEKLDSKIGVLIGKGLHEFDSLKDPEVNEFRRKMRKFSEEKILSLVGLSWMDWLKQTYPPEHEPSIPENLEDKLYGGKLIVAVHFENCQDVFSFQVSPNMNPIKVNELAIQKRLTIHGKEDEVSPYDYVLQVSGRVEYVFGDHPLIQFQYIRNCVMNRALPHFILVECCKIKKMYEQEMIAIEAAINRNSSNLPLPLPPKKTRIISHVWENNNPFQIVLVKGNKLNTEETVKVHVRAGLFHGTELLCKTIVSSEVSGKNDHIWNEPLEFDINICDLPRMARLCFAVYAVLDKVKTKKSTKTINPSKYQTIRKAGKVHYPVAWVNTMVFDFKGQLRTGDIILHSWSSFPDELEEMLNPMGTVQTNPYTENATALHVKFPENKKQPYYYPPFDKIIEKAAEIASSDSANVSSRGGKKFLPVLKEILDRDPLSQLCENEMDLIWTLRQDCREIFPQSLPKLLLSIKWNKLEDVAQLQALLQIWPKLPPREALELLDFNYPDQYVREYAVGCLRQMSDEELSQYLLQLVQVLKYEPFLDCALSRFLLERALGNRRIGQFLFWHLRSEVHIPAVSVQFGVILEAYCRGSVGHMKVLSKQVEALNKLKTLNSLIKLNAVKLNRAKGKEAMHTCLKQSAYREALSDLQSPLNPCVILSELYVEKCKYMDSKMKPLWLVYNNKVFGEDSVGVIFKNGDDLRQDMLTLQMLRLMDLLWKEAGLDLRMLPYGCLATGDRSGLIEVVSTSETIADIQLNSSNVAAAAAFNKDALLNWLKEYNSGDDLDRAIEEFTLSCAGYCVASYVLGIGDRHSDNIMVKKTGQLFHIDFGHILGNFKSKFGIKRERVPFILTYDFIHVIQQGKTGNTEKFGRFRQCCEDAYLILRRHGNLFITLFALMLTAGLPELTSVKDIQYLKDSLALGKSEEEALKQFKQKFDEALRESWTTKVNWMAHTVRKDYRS
T4 sequence (P27986 2-724 partner): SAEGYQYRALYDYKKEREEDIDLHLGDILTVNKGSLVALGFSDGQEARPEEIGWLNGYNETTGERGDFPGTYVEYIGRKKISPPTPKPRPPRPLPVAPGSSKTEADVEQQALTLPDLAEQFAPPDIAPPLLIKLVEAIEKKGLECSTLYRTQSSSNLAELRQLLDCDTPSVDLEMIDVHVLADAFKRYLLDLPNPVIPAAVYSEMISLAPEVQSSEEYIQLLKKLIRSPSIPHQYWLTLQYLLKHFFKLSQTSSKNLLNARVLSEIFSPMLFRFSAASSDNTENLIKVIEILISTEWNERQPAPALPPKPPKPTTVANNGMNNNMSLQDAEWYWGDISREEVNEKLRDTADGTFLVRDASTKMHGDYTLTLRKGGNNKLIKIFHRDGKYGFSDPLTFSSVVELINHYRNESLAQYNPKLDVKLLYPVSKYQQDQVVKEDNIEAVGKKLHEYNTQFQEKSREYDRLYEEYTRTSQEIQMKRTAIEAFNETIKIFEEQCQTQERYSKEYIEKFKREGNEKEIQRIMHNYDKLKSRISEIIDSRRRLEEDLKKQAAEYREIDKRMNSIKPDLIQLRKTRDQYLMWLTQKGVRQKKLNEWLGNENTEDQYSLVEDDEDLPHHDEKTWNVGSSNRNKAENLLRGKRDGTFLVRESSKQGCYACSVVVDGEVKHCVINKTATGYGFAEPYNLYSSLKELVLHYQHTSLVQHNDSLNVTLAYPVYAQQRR
T3 sequence (P42336 whole entry): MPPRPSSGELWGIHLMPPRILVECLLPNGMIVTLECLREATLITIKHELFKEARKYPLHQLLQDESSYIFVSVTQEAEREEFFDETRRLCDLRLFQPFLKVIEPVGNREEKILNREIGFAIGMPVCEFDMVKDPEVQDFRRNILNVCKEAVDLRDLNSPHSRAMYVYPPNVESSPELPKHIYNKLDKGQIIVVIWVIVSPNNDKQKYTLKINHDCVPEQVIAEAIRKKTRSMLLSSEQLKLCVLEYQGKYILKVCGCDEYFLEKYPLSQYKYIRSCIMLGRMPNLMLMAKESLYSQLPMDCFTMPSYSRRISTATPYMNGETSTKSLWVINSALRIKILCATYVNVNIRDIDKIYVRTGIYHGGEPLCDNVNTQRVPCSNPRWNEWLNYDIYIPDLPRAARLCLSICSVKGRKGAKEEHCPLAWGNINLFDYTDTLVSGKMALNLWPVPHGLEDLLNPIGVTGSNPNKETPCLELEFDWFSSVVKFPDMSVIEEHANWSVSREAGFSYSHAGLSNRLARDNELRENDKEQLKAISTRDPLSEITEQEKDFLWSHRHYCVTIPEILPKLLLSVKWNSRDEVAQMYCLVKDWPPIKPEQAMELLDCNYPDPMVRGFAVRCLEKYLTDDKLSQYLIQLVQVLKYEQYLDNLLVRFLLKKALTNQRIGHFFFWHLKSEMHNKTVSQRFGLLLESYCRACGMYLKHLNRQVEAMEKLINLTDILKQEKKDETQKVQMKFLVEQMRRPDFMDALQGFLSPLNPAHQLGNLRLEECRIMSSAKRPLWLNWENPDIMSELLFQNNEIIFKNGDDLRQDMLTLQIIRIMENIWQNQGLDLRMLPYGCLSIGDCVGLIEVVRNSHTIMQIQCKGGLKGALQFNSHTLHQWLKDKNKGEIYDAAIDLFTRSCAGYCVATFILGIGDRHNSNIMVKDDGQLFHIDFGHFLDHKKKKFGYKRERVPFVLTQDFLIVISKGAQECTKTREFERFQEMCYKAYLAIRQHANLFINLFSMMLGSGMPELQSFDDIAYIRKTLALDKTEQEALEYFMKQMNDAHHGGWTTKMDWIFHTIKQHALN
T3 sequence (P27986 2-724 partner): as the sequence (P27986 2-724 partner) above
T2 sequence (O00329 whole entry): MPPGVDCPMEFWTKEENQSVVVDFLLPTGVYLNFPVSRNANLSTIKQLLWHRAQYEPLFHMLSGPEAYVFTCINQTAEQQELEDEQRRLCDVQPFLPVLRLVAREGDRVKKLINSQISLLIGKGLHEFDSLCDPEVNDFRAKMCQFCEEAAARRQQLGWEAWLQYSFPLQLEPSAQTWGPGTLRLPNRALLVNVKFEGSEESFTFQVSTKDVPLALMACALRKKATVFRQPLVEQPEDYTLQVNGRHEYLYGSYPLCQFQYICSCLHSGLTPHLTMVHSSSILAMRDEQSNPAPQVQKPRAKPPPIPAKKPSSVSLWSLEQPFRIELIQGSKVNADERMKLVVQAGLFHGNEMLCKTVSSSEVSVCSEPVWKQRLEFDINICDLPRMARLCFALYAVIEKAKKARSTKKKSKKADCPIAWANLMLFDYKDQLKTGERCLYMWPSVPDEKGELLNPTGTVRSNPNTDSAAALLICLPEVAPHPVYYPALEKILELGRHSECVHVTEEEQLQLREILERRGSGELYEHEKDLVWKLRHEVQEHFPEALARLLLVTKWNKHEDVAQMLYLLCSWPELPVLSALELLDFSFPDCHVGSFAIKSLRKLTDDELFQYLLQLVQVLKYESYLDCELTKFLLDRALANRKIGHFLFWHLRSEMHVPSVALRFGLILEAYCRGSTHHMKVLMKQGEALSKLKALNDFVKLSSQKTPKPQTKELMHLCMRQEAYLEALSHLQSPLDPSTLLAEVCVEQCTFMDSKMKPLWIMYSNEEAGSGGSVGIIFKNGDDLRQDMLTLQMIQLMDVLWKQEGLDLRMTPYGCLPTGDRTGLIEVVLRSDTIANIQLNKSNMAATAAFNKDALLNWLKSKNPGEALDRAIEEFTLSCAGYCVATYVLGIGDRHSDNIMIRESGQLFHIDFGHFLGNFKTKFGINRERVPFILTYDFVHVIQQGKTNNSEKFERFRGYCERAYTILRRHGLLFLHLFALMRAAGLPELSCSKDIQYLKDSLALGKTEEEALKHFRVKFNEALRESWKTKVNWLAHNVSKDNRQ
T2 sequence (P27986 2-724 partner): as the sequence (P27986 2-724 partner) above

In the case of `COc1ncc(-c2ccc(NC(=O)/C=C/c3cccnc3)c(-n3ccnc3)c2)cc1NS(C)(=O)=O` [CK-3], the IC50 is 5.67 µM in test [1]; 4.67 µM in test [2]; 6.71 µM in test [3]; more than 10 µM in test [4]; more than 10 µM in test [5].
